The values that follow come from US20230061736A1, “GPR119 AGONISTS” (Kallyope, Inc., priority 2019, published 2023).

In the experiment the target is T1, human GPR119 (hGPR119) (Homo sapiens, UniProt Q8TDV5).
T1 construct: expressed in transfected cells
T1 sequence (Q8TDV5 1-335): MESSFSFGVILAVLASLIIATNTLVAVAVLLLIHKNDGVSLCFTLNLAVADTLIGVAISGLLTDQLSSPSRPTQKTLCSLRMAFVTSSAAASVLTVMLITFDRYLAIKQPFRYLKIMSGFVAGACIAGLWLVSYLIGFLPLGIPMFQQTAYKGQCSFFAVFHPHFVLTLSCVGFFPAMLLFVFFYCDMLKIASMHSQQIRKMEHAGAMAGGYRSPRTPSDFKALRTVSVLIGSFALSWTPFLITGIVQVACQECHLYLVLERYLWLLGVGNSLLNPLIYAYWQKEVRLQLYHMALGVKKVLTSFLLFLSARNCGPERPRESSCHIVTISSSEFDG
In words: cAMP accumulation assay (cAMP Gs dynamic HTRF kit). Conditions: CHO-K1 cells stably expressing hGPR119, 4-parameter fit; for Emax: 1 h, % activity normalized to Max/Min controls; for EC50: cAMP accumulation. The class given is cell-based. In outline: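 Read-out is HTRF 665/620 nm ratio after 1 h detection at ambient temperature, converted to % activity against positive and negative controls, EC50 and Max activity by 4-parameter fit. Compounds were titrated onto ~10,000 thawed hGPR119-CHO-K1 cells/well for 60 min at 37° C/5% CO2.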

In general, Emax refers to the greatest response seen or fitted, relative to the assay's reference. In general, EC50 refers to the concentration giving half of the maximal effect. A lower EC50 goes with greater potency. For `CCOc1cnc(N2CCC(CCCOc3ccc(CC(=O)N4CC(CNC[C@H](O)[C@@H](O)[C@H](O)[C@H](O)CO)C4)c(F)c3)CC2)nc1` (racemic) [Example 80, 2-[4-[3-[1-(5-ethoxypyrimidin-2-yl)-4-piperidyl]propoxy]-2-fluoro-phenyl]-1-[3-[[[rac-(2S,3R,4R,5R)-2,3,4,5,6-pentahydroxyhexyl]amino]methyl]azetidin-1-yl]ethanone], the Emax is 100 to 130% and the EC50 lay in the range of 100 to 1000 nM.

With `O=C(Cc1c(F)cc(OCCCC2CCN(c3ncc(Cl)cn3)CC2)cc1F)N1CC(CNC[C@H](O)[C@@H](O)[C@H](O)[C@H](O)CO)C1` [Example 53, 2-[4-[3-[1-(5-chloropyrimidin-2-yl)-4-piperidyl]propoxy]-2,6-difluoro-phenyl]-1-[3-[[[(2S,3R,4R,5R)-2,3,4,5,6-pentahydroxyhexyl]amino]methyl]azetidin-1-yl]ethanone], the Emax was at least 130% and the EC50 was at most 100 nM.

As to `COCc1cnc(N2CCC([C@H]3C[C@H]3COCc3ccc(CC(=O)N4CC(CNC[C@H](O)[C@@H](O)[C@H](O)[C@H](O)CO)C4)c(F)c3)CC2)nc1` [Example 96, 2-[2-fluoro-4-[[(1R,2R)-2-[1-[5-(methoxymethyl)pyrimidin-2-yl]-4-piperidyl]cyclopropyl]methoxymethyl]phenyl]-1-[3-[[[(2S,3R,4R,5R)-2,3,4,5,6-pentahydroxyhexyl]amino]methyl]azetidin-1-yl]ethanone], the Emax lay within 100 to 130% and the half-maximal effective concentration (EC50) was in the range of 100 to 1000 nM.

Regarding `O=C(Cc1ccc(OCCCC2CCN(c3ncc(Cl)cn3)CC2)cc1F)N1CC(CCNC[C@H](O)[C@H](O)[C@H](O)CO)C1` [Example 164, 2-[4-[3-[1-(5-chloropyrimidin-2-yl)-4-piperidyl]propoxy]-2-fluoro-phenyl]-1-[3-[2-[[(2S,3S,4R)-2,3,4,5-tetrahydroxypentyl]amino]ethyl]azetidin-1-yl]ethanone], the Emax lay within 100 to 130% and the EC50 was at most 100 nM.

`O=C(CC1CN(C(=O)Cc2c(F)cc(OCCCC3CCN(c4ncc(Cl)cn4)CC3)cc2F)C1)NCC(O)(CO)CO` [Example 34, 2-[1-[2-[4-[3-[1-(5-chloropyrimidin-2-yl)-4-piperidyl]propoxy]-2,6-difluoro-phenyl]acetyl]azetidin-3-yl]-N-[2,3-dihydroxy-2-(hydroxymethyl)propyl]acetamide] registered an Emax of at least 130% and an EC50 of at most 100 nM.

Take `O=C(CC1CN(C(=O)Cc2ccc(OCCCC3CCN(c4ncc(Cl)cn4)CC3)cc2F)C1)NCCCS(=O)(=O)O` [Example 177, 3-[[2-[1-[2-[4-[3-[1-(5-chloropyrimidin-2-yl)-4-piperidyl]propoxy]-2-fluoro-phenyl]acetyl]azetidin-3-yl]acetyl]amino]propane-1-sulfonic acid]: the Emax lay within 100 to 130% and the EC50 lay within 100 to 1000 nM.

`CCOc1cnc(N2CCC(CCCOc3cc(F)c(CC(=O)N4CC[C@@H](CNCC(CO)(CO)CO)C4)c(F)c3)CC2)nc1` [Example 157, 2-[4-[3-[1-(5-ethoxypyrimidin-2-yl)-4-piperidyl]propoxy]-2,6-difluoro-phenyl]-1-[(3S)-3-[[[3-hydroxy-2,2-bis(hydroxymethyl)propyl]amino]methyl]pyrrolidin-1-yl]ethanone] returned an Emax of at least 130% and an EC50 of at most 100 nM.

As to `COCc1cnc(N2CCC(CCCOc3cc(F)c(CC(=O)N4CC[C@@H](CNCC(CO)(CO)CO)C4)c(F)c3)CC2)nc1` [Example 160, 2-[2,6-difluoro-4-[3-[1-[5-(methoxymethyl)pyrimidin-2-yl]-4-piperidyl]propoxy]phenyl]-1-[(3S)-3-[[[3-hydroxy-2,2-bis(hydroxymethyl)propyl]amino]methyl]pyrrolidin-1-yl]ethanone], the Emax was at least 130% and the EC50 is at most 100 nM.

Take `O=C(Cc1ccc(OCCCC2CCN(c3ncc(Cl)cn3)CC2)cc1F)N1CC(CNC[C@@H](O)[C@H](O)[C@H](O)CO)C1` [Example 167, 2-[4-[3-[1-(5-chloropyrimidin-2-yl)-4-piperidyl]propoxy]-2-fluoro-phenyl]-1-[3-[[[(2R,38,4R)-2,3,4,5-tetrahydroxypentyl]amino]methyl]azetidin-1-yl]ethanone]: the Emax lay in the range of 100 to 130% and the EC50 was at most 100 nM.

Consider `O=C(Cc1ccc(OCCCC2CCN(c3ncc(Cl)cn3)CC2)cc1F)N1CCC(O)(CNC[C@H](O)[C@H](O)[C@H](O)CO)CC1` [Example 187, 2-[4-[3-[1-(5-chloropyrimidin-2-yl)-4-piperidyl]propoxy]-2-fluoro-phenyl]-1-[4-hydroxy-4-[[[(2S,3S,4R)-2,3,4,5-tetrahydroxypentyl]amino]methyl]-1-piperidyl]ethanone], for which the Emax lay in the range of 100 to 130% and the EC50 was at most 100 nM.

`CCOc1cnc(N2CCC(CCCOc3cc(F)c(CC(=O)N4CC[C@H](C(=O)NC[C@H](O)[C@@H](O)[C@H](O)[C@H](O)CO)C4)c(F)c3)CC2)nc1` [Example 130, (3S)-1-[2-[4-[3-[1-(5-ethoxypyrimidin-2-yl)-4-piperidyl]propoxy]-2,6-difluoro-phenyl]acetyl]-N-[(2S,3R,4R,5R)-2,3,4,5,6-pentahydroxyhexyl]pyrrolidine-3-carboxamide] returned an Emax of 100 to 130% and a half-maximal effective concentration (EC50) of at most 100 nM.

In turn, `O=C(Cc1ccc(OCCCC2CCN(c3ncc(Cl)cn3)CC2)cc1F)N1CC(CCNCC(CO)CO)C1` [Example 57, 2-(4-(3-(1-(5-chloropyrimidin-2-yl)piperidin-4-yl)propoxy)-2-fluorophenyl)-1-(3-(2-((3-hydroxy-2-(hydroxymethyl)propyl)amino)ethyl)azetidin-1-yl)ethan-1-one] gave a maximum response (Emax) of 100 to 130% and an EC50 of at most 100 nM.

The compound `O=C(Cc1ccc(OCCCC2CCN(c3ncc(Cl)cn3)CC2)cc1F)N1CC(CNC[C@H](O)[C@@H](O)[C@H](O)CO)C1` [Example 166, 2-[4-[3-[1-(5-chloropyrimidin-2-yl)-4-piperidyl]propoxy]-2-fluoro-phenyl]-1-[3-[[[(2S,3R,4R)-2,3,4,5-tetrahydroxypentyl]amino]methyl]azetidin-1-yl]ethanone] had an Emax of 100 to 130% and an EC50 of at most 100 nM.

As for `CCc1cnc(N2CCC(CCCOc3cc(F)c(CC(=O)N4CC(CNCCNC(=O)NC(CO)(CO)CO)C4)c(F)c3)CC2)nc1` [Example 68, 1-(1,3-dihydroxy-2-(hydroxymethyl)propan-2-yl)-3-(2-(((1-(2-(4-(3-(1-(5-ethylpyrimidin-2-yl)piperidin-4-yl)propoxy)-2,6-difluorophenyl)acetyl)azetidin-3-yl)methyl)amino)ethyl)urea], the maximum response (Emax) was at least 130% and the EC50 is at most 100 nM.

As for `O=C(Cc1ccc(OCCCC2CCN(c3ncc(Cl)cn3)CC2)cc1F)N1CC(CNCC(CO)CO)C1` [Example 45, 2-[4-[3-[1-(5-chloropyrimidin-2-yl)-4-piperidyl]propoxy]-2-fluoro-phenyl]-1-[3-[[[3-hydroxy-2-(hydroxymethyl)propyl]amino]methyl]azetidin-1-yl]ethanone], the Emax lay within 100 to 130% and the EC50 is at most 100 nM.

`CC1(OC(=O)N2CCC(CCCOc3ccc(CC(=O)N4CC(CNC[C@H](O)[C@@H](O)[C@H](O)[C@H](O)CO)C4)c(F)c3)CC2)CC1` (racemic) [Example 119, (1-methylcyclopropyl) 4-[3-[3-fluoro-4-[2-oxo-2-[3-[[[rac-(2S,3R,4R,5R)-2,3,4,5,6-pentahydroxyhexyl]amino]methyl]azetidin-1-yl]ethyl]phenoxy]propyl]piperidine-1-carboxylate] registered an Emax of 100 to 130% and an EC50 of 100 to 1000 nM.

`CCCc1cnc(N2CCC(CCCOc3cc(F)c(CC(=O)N4CC(CNCC(O)(CO)CO)C4)c(F)c3)CC2)nc1` [Example 75, 2-(2,6-difluoro-4-(3-(1-(5-propylpyrimidin-2-yl)piperidin-4-yl)propoxy)phenyl)-1-(3-(((2,3-dihydroxy-2-(hydroxymethyl)propyl)amino)methyl)azetidin-1-yl)ethan-1-one] returned an Emax of 100 to 130% and an EC50 of at most 100 nM.

For the compound `COc1cnc(N2CCC(CCCOc3ccc(CC(=O)N4CC(CNC[C@H](O)[C@@H](O)[C@H](O)[C@H](O)CO)C4)c(F)c3)CC2)nc1` (racemic) [Example 79, 2-[2-fluoro-4-[3-[1-(5-methoxypyrimidin-2-yl)-4-piperidyl]propoxy]phenyl]-1-[3-[[[rac-(2S,3R,4R,5R)-2,3,4,5,6-pentahydroxyhexyl]amino]methyl]azetidin-1-yl]ethanone], the Emax is 100 to 130% and the EC50 was in the range of 100 to 1000 nM.

The compound `O=C(NCCCCCS(=O)(=O)O)C1CN(C(=O)Cc2ccc(OCCCC3CCN(c4ncc(Cl)cn4)CC3)cc2F)C1` [Example 174, 5-[[1-[2-[4-[3-[1-(5-chloropyrimidin-2-yl)-4-piperidyl]propoxy]-2-fluoro-phenyl]acetyl]azetidine-3-carbonyl]amino]pentane-1-sulfonic acid] had an Emax of 100 to 130% and an EC50 of 100 to 1000 nM.

`O=C(Cc1ccc(OCCCC2CCN(c3ncc(Cl)cn3)CC2)cc1F)N1CC[C@@H](CNCC(O)(CO)CO)C1` [Example 99, 2-[4-[3-[1-(5-chloropyrimidin-2-yl)-4-piperidyl]propoxy]-2-fluoro-phenyl]-1-[(3S)-3-[[[2,3-dihydroxy-2-(hydroxymethyl)propyl]amino]methyl]pyrrolidin-1-yl]ethanone] registered a maximal response (Emax) of at least 130% and an EC50 of at most 100 nM.
